This is an account of results in PMC8881501, “Identification of SARS-CoV-2 inhibitors targeting Mpro and PLpro using in-cell-protease assay” (Communications Biology, 2022).

Where “and” joins values, the source holds several entries; their conditions need not be identical. Equal entries are not always repeated. Where two headings read alike, the source gives them in different places. Non-standard residues stand in square brackets, D forms with d. Residues, ends and D or L forms follow the SMILES beside them. Nle = CCCC[C@H](N)C(=O)O

The test has as its system SARS-CoV-2 delta variant. The class given is cell-based. To be noted: Huh 7.5, replicates.

Consider `N[C@@H](CC(=O)N1CCn2c(nnc2C(F)(F)F)C1)Cc1cc(F)c(F)cc1F` [Sitagliptin], for which the “virus titer of delta variant, Fig 6B data” value is 960000 and 720000 and 480000 (single drug 0.01 μM); 720000 and 400000 and 560000 (single drug 0.1 μM); 560000 and 720000 and 64000 (single drug 1 μM).

Regarding `CCCC[C@@H](C=O)NC(=O)[C@H](CC(C)C)NC(=O)[C@H](CC(C)C)NC(C)=O` [MG-101] (Ac-Leu-Leu-[Nle]-aldehyde), the “virus titer of delta variant, Fig 6B data” value is 640000 and 800000 and 400000 (single drug 0.01 μM); 400000 and 960000 and 800000 (single drug 0.1 μM); 240000 (2×) and 160000 (single drug 1 μM).
